{"source": "paper PMC4914250", "about": "“Cancer therapeutic approach based on conformational stabilization of mutant p53 protein by small peptides” (Oncotarget, 2016)", "test_system": "SW-480 colon cancer cells", "assay": "SW480 colon carcinoma xenograft, intratumoral injection", "format": "in vivo, nude mice", "procedure": "The lead peptides were evaluated also in a colon carcinoma xenograft model, employing SW480 cells that harbor p53^R273H, P309S. The experiment was conducted on 15 mice, randomly divided into 3 groups: a control group treated with a cocktail of 3 ineffective peptides, a group treated with a cocktail of 3 effective pCAPs (250, 308, 325) and a group treated singly with pCAP-325. Tumors were allowed to reach visible size for 10 days before onset of treatment. […] Figures 6F, 6G show the mean weight and volume of excised tumors.\nFigure 6 Effect of lead peptides on tumor progression in vivo; colon cancer xenograft model In vivo effect of the indicated peptides in a mouse xenograft model of SW-480 colon cancer cells. 10^6 cells were injected and tumors were allowed to establish for 10 days. […] D., E. - Box plot of tumor volume and weight, respectively. TEXT PRINTED IN THE PICTURE: (A) Control peptides: SW-480 colon carcinoma cells (p53^273,309): 240% | (B) pCAP mix: SW-480 colon carcinoma cells (p53^273,309): -97% | (C) pCAP-325: SW-480 colon carcinoma cells (p53^273,309): -93.6% DOUBTS OF THE COPYIST ABOUT THIS PICTURE: Panels A-C: no measure is printed with the percentages (240%, -97%, -93.6%); each stands only beside a bracket at the right end of the plot\nMice (6 weeks athymic nude) were injected subcutaneously with 2×10^5-10^6 cells into each […]. All cell lines employed in these experiments stably express a luciferase reporter gene to enable monitoring of tumor growth by live imaging. 4-18 days later, when tumors reached visible size, the mice were randomly divided into several groups: a control group, treated with either a single control peptide or a mix of 2-3 control pCAPs, and groups treated with effective peptides, either a single peptide or a mix of three peptides. Peptides were administered by intratumoral injection of 6-10μg peptide per tumor in 40μl PBS, three times a week. Tumor growth over time was measured by live imaging, using the IVIS2000 system. Exposure time was calibrated to 20 seconds. 16 images were taken over 8 minutes and peak luminescence values were taken for each tumor. Experiments were conducted until tumors reached maximal allowed size of 1cm^3, at which time were sacrificed and tumors extracted, measured and weighed.", "key": {"[1]": {"conditions": "Experiment 4, SW-480 p53^R273H,P309S"}, "[2]": {"conditions": "Experiment 4, SW-480 p53^R273H,P309S, excised tumors"}}}
{"substance": "myr-RRIRDPRILLLHFD [pCAP-325]", "values": [{"measurement": "% of tumors total regression", "setting": "[1]", "result": 20, "unit": "%"}, {"measurement": "IVIS average ratio to day 0", "setting": "[1]", "result": 6.4, "unit": "%"}, {"measurement": "Samples average size", "setting": "[2]", "result": 0.12}, {"measurement": "Samples average weight", "setting": "[2]", "result": 0.1}, {"measurement": "tumor size decrease", "setting": "SW480 xenograft, intratumoral three times a week, mix 2μg of each peptide or pCAP-325 6μg, live imaging", "result": 93.6, "unit": "%"}]}
